Experimental data published in publication PMC3462190, “A Peptidic Unconjugated GRP78/BiP Ligand Modulates the Unfolded Protein Response and Induces Prostate Cancer Cell Death” (PLoS ONE, 2012).
Where no end group is shown, it is not given here.

B1: Bag-1 peptide: internal sequence of 68 amino acids of Bag-1 (Bag1-L 202–269), HA-tagged, expressed from pcDNA3 (peptide)
chain: TPLSALGIQDGCRVMLIGKKNSPQEEVELKKLKHLEKSVEKIADQLEELNKELTGIQQGFLPKDLQAE
modifications: also: HA tag, end not given here

Each molecule was assayed on 22Rv.1 cells (assay: Clonogenic assay). Settings: neomycin selection, colonies quantified; mean ± SEM of at least three independent experiments.
Assay type: cell-based
Excerpt: Figure 5 An N-terminal unfolded fragment of the Bag-1 peptide is sufficient to reduce tumor cell growth. A. Schematic diagram of the Bag-1 peptide and its deletion mutants. The ubiquitin-like domain is represented in blue and the BAG domain in red. The numbers refer to the amino acid positions of the different domains. The amino acid residues are numbered following the numbering for Bag-1L. B. Prediction of the secondary structure of the Bag-1 peptide, showing an N-terminal β-hairpin from the ubiquitin-like domain (blue) and a C-terminal α-helix from the BAG domain (red). C. Normalized circular dichroism spectra of the Bag-1 peptides. 30 µM of the Bag-1 peptide were measured in 20 mM KHPO4 buffer, pH 6.8 (black line). Its α-helical content was estimated to be approximately 25% by deconvolution of the spectra (red line). 12 µM of the N-term peptide (green line) and 11 µM of C-term (blue line) were measured under the same conditions. D. ^1H^15N-HSQC NMR spectrum of ^15N-labeled Bag-1 peptide (202–269) in 20 mm KHPO4 buffer, pH 6.8, at 23°C. […] The Hδ and Hε side chain signals of asparagine and glutamine are connected by thin lines. E. The N-terminal region of the Bag-1 peptide is important for GRP78 binding. 400 µg of 22Rv.1 cell lysate were incubated with glutathione-agarose beads carrying 15 µg GST-N-term peptide (lane 2), GST-C-term peptide (lane 3), GST-ΔUbi peptide (lane 4), GST-Bag-1(202–269) peptide (lane 5) and GST (lane 6). The beads were washed and the bound proteins were separated by 10% SDS-PAGE and subjected to Western blotting using antibodies directed against GRP78 or GST. […] F. Clonogenic assay of the Bag-1 peptides expressed in 22Rv.1 cells. Cells transfected with the indicated constructs were selected in medium containing neomycin and the colonies formed were quantified. Shown are the mean value ±SEM of at least three independent experiments using three different plasmid preparations (*p<0.05). […] Six-week old athymic nude mice were injected subcutaneously on both flanks with 5×10^6 cells of each stable clone. Tumor size was measured once per week using a caliper and expressed as tumor volume in mm^3. Shown are the tumor volumes of clones transfected with the N-terminal peptide (G), the C-terminal peptide (H) and the ΔUbi peptide (I). Each point represents the mean volume and standard deviation of at least 5 to 10 tumors.
Figure 6 Selectivity of action of the Bag-1 peptide. A Amino acid sequence of the 19mer peptide and its deletion mutants. B GST pull-down assay performed incubating 400 µg of 22Rv.1 cell lysate and 25 µg of GST-fused deletion mutants of the 19mer peptide. After the pull-down experiment, Western blots were carried out with anti-GRP78/BiP and GST antibodies. C. Fluorescence polarization (FP) assays with a 10 nM FITC-labeled 7-mer Bag-1 peptide and dilutions of the GST-fused substrate binding domain of GRP78 in 60 µl of Tris-GSH buffer (50 mM Tris, 10 mM reduced glutathione and 0.1% BSA, pH 8.0). Triplicate samples were measured after 5 h of incubation at room temperature with an Infinite F-200 reader (Tecan) with excitation at 490 nm and emission at 535 nm. Binding constants were determined from three independent experiments using non-linear regression in Sigma Plot 10.0. D. Competition assays with a complex of 10 nM of FITC-labeled Bag-1 7-mer peptide and 0.75 mg/ml GST-fused GRP78 substrate binding domain was measured against a dilution series from 100 µM to 0.1 nM of wild-type Bag-1 7-mer peptide (filled line) or triple mutant peptide (dotted line) in 40 µl of Tris-GSH buffer. FITC-peptide and the FITC-peptide-protein complex were used as controls. Fluorescence polarization was determined as described above and IC50 values were determined in Sigma Plot. […]
With “19-mer: Bag-1L 202–220 (TPLSALGIQDGCRVMLIGK; not fully specified)” the “22Rv.1 growth in clonogenic assay” value was “inhibit 22Rv.1 cell growth”.
For “C-terminal peptide: 28 C-terminal fragment of the Bag-1 peptide (Bag-1L 241–269) (EKIADQLEELNKELTGIQQGFLPKDLQAE; not fully specified)”, the “22Rv.1 growth in clonogenic assay” value was “ineffective”.
“N-terminal peptide: N-terminal 40 residues of the Bag-1 peptide (Bag-1L 202–241) (TPLSALGIQDGCRVMLIGKKNSPQEEVELKKLKHLEKSVE; not fully specified)” was tested, and the “22Rv.1 growth in clonogenic assay” value was “inhibited growth of the 22Rv.1 cells”.
“ΔUbi peptide: Bag-1 peptide lacking the ubiquitin-like domain portion (Bag-1L 220–269) (KKNSPQEEVELKKLKHLEKSVEKIADQLEELNKELTGIQQGFLPKDLQAE; not fully specified)” was tested, and the “22Rv.1 growth in clonogenic assay” value was “ineffective”.
B1 was tested, and the “22Rv.1 growth in clonogenic assay” value was “inhibited growth of the 22Rv.1 cells”.
